Experiments:
[1] = system: triglyceride biosynthesis; assay: Measurement of triglyceride biosynthesis inhibitive activity in a rat liver cell; type: cell-based; conditions: for inhibition at 1 µM: Rattus norvegicus, 6 h, read-out: Triglyceride biosynthesis inhibitive activity inhibition in 1 μM of the specimen; for Triglyceride biosynthesis inhibitive activity inhibition in 1 μM of the specimen: isolated rat liver cells, [1-14C]acetic acid added 4 hours after the specimen, inhibition rate to control group
Method: (§1) Measurement of Cholesterol and Triglyceride Biosynthesis Inhibitive Activities in a Rat Liver Cell
(§2) A liver cell was isolated from a male SD rat according to a usual method (collagenase perfusion method) and subjected to an experiment.
(§3) The isolated liver cells were planted in an amount of 500 μ1 every well on a Type collagen coated 24 well plate (cell density: 4×10^5 cell/ml). As the cell culture solution, a Williams'E medium (adjusted to pH 7.4) containing 10% FCS, 1 μM insulin, 1 μM dexamethasone, 100 units/ml penicillin and 10 μg/ml streptomycin was used. After the liver cells were incubated in a CO2 incubator for 2 hours, unstuck cells were removed and the liver cells were further incubated overnight.
(§4) After the culture medium was exchanged, the specimen diluted in a 10% DMSO-90% cell culture solution was added to each well in an amount of 5 μ1. DMSO (final concentration: 0.1%) was added to a control group. A [1-^14C]Acetic acid, sodium salt (5 μCi/well) was added to the media 10 minutes and 4 hours after the specimen was added for the measurement of cholesterol synthesis inhibitive action and for the measurement of triglyceride synthesis inhibitive action respectively, followed by culturing for further 2 hours.
(§5) After the cultivation was finished, the supernatant was removed and the cells were washed using PBS(−)(Phosphate buffered saline (Ca^2+, Mg^2+free) twice. Hexane/isopropyl alcohol (3:2, v/v) was added to the cells and the cells were then allowed to stand for 10 minutes to extract intracellular lipid. The extract was transferred to a glass tube and exsiccated under a nitrogen gas stream. Further, the exsiccated extract was washed with 25 mL of petroleum ether and then dissolved in petroleum ether containing the following components: 0.01% squalene, 0.3% free cholesterol, 0.3% cholesterol acetate, 0.1% triolein, 0.01% farnesol and 0.3% lanosterol.
(§6) The resulting solution was spotted on a TLC plate to perform an isolating operation. The spotted solution was developed for 10 minutes by using toluene/isopropyl ether (1:1, v/v) as the solvents and for further 15 minutes by using heptane in place of the above solvent after it was dried using air.
(§7) After the development was finished, the TLC plate was subjected to iodine color development. After each position of free cholesterol and triolein which were used as standards was confirmed, the image of the TLC plate was transferred to a BAS 2000 (Fuji Film) imaging plate by exposure performed for 16 hours. This transferred image was analyzed using a BAS 2000 IP Reader and an Imaging analyzer II to measure radiative activities contained in the free cholesterol and triglyceride fractions.
(§8) The cholesterol biosynthesis inhibitive activity was expressed by a concentration (IC50) at which 50% of the radiative activity of the control group was inhibited and the triceride biosynthesis inhibitive activity was expressed by an inhibition rate (%) to the control group.

cholesterol biosynthesis [2] = assay: Measurement of cholesterol biosynthesis inhibitive activity in a rat liver cell; type: cell-based; conditions: isolated rat liver cells, [1-14C]acetic acid added 10 minutes after the specimen
Method: as §1, §2, §3, §4, §5, §6, §7, §8

[3] = target: T1, squalene synthesizing enzyme (Rattus norvegicus, UniProt Q02769); assay: Measurement of squalene synthesizing enzyme inhibitive activity by using a rat liver microsome; type: biochemical; conditions: [3H]-farnesylpyrophosphoric acid
T1 construct: The liver was excised from a male Spraugue-Dawly rat; from tissue; host or cells: liver microsome fraction of male Sprague-Dawley rat (8 to 9 weeks)
T1 sequence (Q02769 1-416): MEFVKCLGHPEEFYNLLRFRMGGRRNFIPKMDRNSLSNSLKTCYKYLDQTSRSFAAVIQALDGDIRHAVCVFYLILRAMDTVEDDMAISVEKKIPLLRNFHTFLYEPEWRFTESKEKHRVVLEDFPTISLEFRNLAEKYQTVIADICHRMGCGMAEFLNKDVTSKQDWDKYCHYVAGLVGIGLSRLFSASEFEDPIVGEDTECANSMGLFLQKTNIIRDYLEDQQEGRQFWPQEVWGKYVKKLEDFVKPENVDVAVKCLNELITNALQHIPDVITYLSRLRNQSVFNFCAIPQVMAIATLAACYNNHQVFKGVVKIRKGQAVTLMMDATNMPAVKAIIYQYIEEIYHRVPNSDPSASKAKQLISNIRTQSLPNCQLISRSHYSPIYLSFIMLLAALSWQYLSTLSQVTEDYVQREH
Method: Measurement of Squalene Synthesizing Enzyme Inhibitive Activity by Using a Rat Liver Microsome
(I) The reaction was run on a scale of 500 μ1. 200 µl of a solution containing 125 mM tris-hydrochloric acid (pH: 7.3), 2.5 mM magnesium chloride, 5 mM potassium fluoride and 10 mM reduction type nicotinamidoadenine dinucleotide phosphoric acid, 100 µl of the specimen solution with a 5-fold concentration, 100 µl of distilled water and 50 µl of 0.4 to 1 mg/ml rat liver microsome prepared by the following method were mixed.
(II) The above mixture was pre-incubated at 37° C. for 10 minutes and thereafter, 50 µl of 100 μM [^3H]-farnesylpyrophosphoric acid (30 mCi/mmol, NEN) was added to the mixture to start a reaction. The reaction was continued at 37° C. for 10 minutes. 1 ml of ethanol was added to the resulting mixture to terminate the reaction and then 1 ml of distilled water and 3 ml of petroleum ether were added to the reaction solution, which was then shaken for 30 minutes. The water phase was separated from the oil phase, the water phase was frozen at −70° C. in dry ice/methanol and the radiative activity of the organic phase was measured using a liquid scintillator. Or the organic phase was evaporated to dryness using nitrogen gas and the residue was dissolved as a marker in 25 µl of chloroform containing squalene, farnesol and cholesterol. This sample was spotted on a TCL plate (Merck) and developed using heptane for 15 to 20 minutes. A band of squalene was cut from the plate to measure the radiative activity by using a liquid scintillation counter. The data was expressed by a concentration (IC50) at which 50% of the radiative activity of a control group was inhibited.
Method of the Preparation of a Rat Liver Microsome
The following operations were all carried out on ice and the centrifugation was performed at 4° C. The liver was excised from a male Spraugue-Dawly rat (hereinafter referred to as SD rat) (8 to 9 weeks age) and perfused with 1.15% potassium chloride to remove the blood. Then, the liver was minced using a forceps and the minced liver was homogenized using a Teflon homogenizer. The resulting sample was centrifuged at 16000×g twice for 15 minutes. The supernatant was further centrifuged at 105000×g for 60 minutes. The obtained deposit was determined as a microsome fraction, which was then suspended in a 25 mM tris-hydrochloric acid solution. The concentration of protein was measured quantitatively by a Bradford method and the concentration of protein was adjusted to 20 mg/ml by using the same solution. The resulting solution was stored at […].

cholesterol biosynthesis [4] = assay: Measurement of cholesterol biosynthesis inhibitive activity in a rat; type: in vivo; conditions: 2 h, male SD rat, oral, inhibition rate to control group
Method: Measurement of Cholesterol Biosynthesis Inhibitive Activity in a Rat
(I) An SPF grade male SD rat (4 weeks age, SLC) was bred for more than one week in a day-night-reversal room and subjected to an experiment made in the daytime. The compound dissolved in a 2% Tween 80 solution was administered (5 ml/kg) to the rat using an oral sonde. After one hour, a [1-^14C]Acetic acid, sodium salt (1.67-2.22 GBq/mmol, 37 MBq/ml, NEN) prepared by diluting to 1.85 MBq/ml by using physiological saline was intraabdominally administered (300 μ1/animal). After one hour, the rat was anesthetized by diethyl ether to carry out exsanguination from the aorta abdominalis. The collected blood was centrifuged at 3000 rpm for 10 minutes to prepare blood plasma.
(II) 1 ml of 4N KOH and 1 ml of ethanol were added to 2 ml of the blood plasma, which was then incubated at 65° C. for one hour and there after, 3 ml of petroleum ether was added. The plasma was shaken for 30 minutes. After the water phase was separated from the organic phase by centrifugation, it was frozen at −80° C. and the radiative activity of the organic phase was measured using a liquid scintillation counter. Or the organic phase was evaporated to dryness using nitrogen gas and the residue was dissolved as a marker in 25 µl of chloroform containing squalene, farnesol and cholesterol. This sample was applied to a TCL plate (Merck) and developed using toluene and isopropyl ether (1:1) for 15 to 20 minutes. A band of cholesterol was cut from the plate to measure the radiative activity by using a liquid scintillation counter. The cholesterol biosynthesis inhibition activity was expressed by an inhibition rate (%) to a control group.

Row | Compound | inhibition at 1 µM [1] [%] | IC50 (cholesterol biosynthesis [2]; 10 min) [nM] | IC50 [3] [nM] | further results
1 | O[C@]1(C#Cc2cnc(-c3ccccn3)cc2Cc2ccccc2)CN2CCC1CC2 [Example 179, (3R)-3-[4-Benzyl-2-(2-pyridyl)-5-pyridyl]ethynyl-3-quinuclidinol] | 84 | 130 | – | –
2 | CO[C@@H]1CN(c2ccc(C#C[C@@]3(O)CN4CCC3CC4)c(Cc3ccccc3)n2)C[C@@H]1F [Example 110] | 84 | – | 2.1 | –
3 | OCCCOc1ccc(C#C[C@@]2(O)CN3CCC2CC3)c(Cc2ccccc2)n1 [Example 166, (3R)-3-[2-Benzyl-6-(3-hydroxypropyl)oxy-3-pyridyl]ethynyl-3-quinclidinol] | 82 | – | 15 | –
4 | CO[C@@H]1CN(c2nc(Cc3ccccc3)c(C#C[C@@]3(O)CN4CCC3CC4)cc2Cl)C[C@H]1O [Example 116, (3R)-(3R)-3-[2-Benzyl-5-chloro-6[(3R,4R)-3-hydroxy-4-methoxypyrrolidine-1-yl]-3-pyridyl]ethynyl-3-quinuclidinol] | – | 72 | 0.77 | –
5 | CO[C@H]1CN(c2ccc(C#C[C@@]3(O)CN4CCC3CC4)c(Cc3ccccc3)n2)C[C@H]1OC (relative stereo) [Example 120, (3R)-3-[2-Benzyl-6-(cis-3,4-dimethoxyprrolidine-1-yl)-3-pyridyl]ethynyl-3-quinuclidinol] | – | – | – | Triglyceride biosynthesis inhibitive activity inhibition in 1 μM of the specimen [1]: 80%; IC50 (cholesterol biosynthesis [2]): 75 nM
6 | O[C@]1(C#Cc2ccc(OCCCF)nc2Cc2ccccc2)CN2CCC1CC2 [Example 150, (3R)-3-[2-Benzyl-6-(3-fluoropropyl)oxy-3-pyridyl]ethynyl-3-quinuclidinol] | 80 | – | – | inhibition in vivo at 1 mg/kg (cholesterol biosynthesis [4]; dose 1 mg/kg): 73%
7 | O[C@]1(C#Cc2cnc(-c3cccnc3)cc2Cc2ccccc2)CN2CCC1CC2 [Example 176, (3R)-3-[4-Benzyl-2-(3-pyridyl)-5-pyridyl]ethynyl-3-quinuclidinol] | 74 | – | – | –
8 | (3R)-3-[Benzyl-6-(3,3-ethylenedioxypyrrolidine-1-yl]-3-pyridyl]ethynyl-3-quinuclidinol [Example 118] | – | – | 2.5 | Triglyceride biosynthesis inhibitive activity inhibition in 1 μM of the specimen [1]: 85%; IC50 (cholesterol biosynthesis [2]): 75 nM
9 | CO[C@H]1CN(c2ccc(C#C[C@@]3(O)CN4CCC3CC4)c(Cc3ccccc3)n2)C[C@H]1O [Example 106, (3R)-3-[2-Benzyl-6-[(3R,4S)-3-hydroxy-4-methoxypyrrolidine-1-yl)-3-pyridyl]ethynyl-3-quinuclidinol] | 81 | – | 6.9 | –
10 | O[C@]1(C#Cc2cnc(C3=COCCO3)cc2Cc2ccccc2)CN2CCC1CC2 [Example 186, (3R)-3-[4-Benzyl-2-(1,4-dioxene-2-yl)-5-pyridyl]ethynyl-3-quinuclidinol] | – | – | – | IC50 (cholesterol biosynthesis [2]): 69 nM
11 | (3R)-3-[4-Benzyl-2-[(3R,4R)-3-hydroxy-4-methoxypyrrolidine-1-yl]-3-pyrimidyl]ethynyl-3-quinuclidinol [Example 201] | – | – | 1.6 | Triglyceride biosynthesis inhibitive activity inhibition in 1 μM of the specimen [1]: 85%
12 | COC(C)COc1ccc(C#C[C@@]2(O)CN3CCC2CC3)c(Cc2ccccc2)n1 (stereo partly drawn) [Example 148, (3R)-3-[2-Benzyl-6-(2-methoxypropyl)oxy-3-pyridyl]ethynyl-3-quinuclidinol] | – | 160 | – | inhibition in vivo at 3 mg/kg (cholesterol biosynthesis [4]; dose 3 mg/kg): 92%
13 | O=C1N(c2ccc(C#C[C@@]3(O)CN4CCC3CC4)c(Cc3ccccc3)n2)CCC12OCCO2 [Example 138, (3R)-3-[2-Benzyl-6-(3,3-ethylenedioxy-2-pyrrolidinone-1-yl)-3-pyridyl]ethynyl-3-quinuclidinol] | – | 14 | 0.35 | –
14 | COC(C)COc1ccc(C#C[C@]2(O)CN3CCC2CC3)c(Cc2ccccc2)n1 (stereo partly drawn) [Example 149, (3S)-3-[2-Benzyl-6-(2-methoxypropyl)oxy-3-pyridyl]ethynyl-3-quinuclidinol] | – | 590 | – | –
15 | CO[C@@H]1CN(c2nc(Cc3ccccc3)c(C#C[C@@]3(O)CN4CCC3CC4)cc2Br)C[C@H]1O [Example 117, (3R)-3-[2-Benzyl-5-bromo-6-[(3R,4R)-3-hydroxy-4-methoxypyrrolidine-1-yl]-3-pyridyl]ethynyl-3-quinuclidinol] | – | 79 | 4.5 | –
16 | CO[C@H]1C(=O)N(c2ccc(C#C[C@@]3(O)CN4CCC3CC4)c(Cc3ccccc3)n2)C[C@H]1O [Example 124, (3R)-3-[2-Benzyl-6-[(3R,4R)-4-hydroxy-3-methoxy-2-pyrrolidinone-1-yl]-3-pyridyl]ethynyl-3-quinuclidinol] | 79 | 81 | 1.8 | –

Reference: US6599917B1, “Quinuclidine compounds and drugs containing the same as the active ingredient” (priority 1999, dated 2003)
